Columns and labels:
F4/80 = assay: DAB staining of renal failure marker protein F4/80 in renal tissue sections; format: in vivo, mice; details: lubiprostone 50 or 500 μg/kg vs corn oil administration group; FIG. 4 upper
Protocol: (§1) [3] The adenine-diet fed group was fed by returning the feed to the ordinary feed after 6 weeks of adenine-diet feeding (at 13 weeks of age) and divided into 3 administration groups (“corn-oil administration group” [vehicle], “lubiprostone 50 administration group” [Lubi50], and “lubiprostone 500 administration group” [Lubi500]; corn oil, 50 μg/kg (mouse body weight) of lubiprostone dissolved in corn oil [Amitiza capsule] [from Abbot Japan Co., Ltd.], and 500 μg/kg (mouse body weight) of lubiprostone dissolved in corn oil [from Abbot Japan Co., Ltd.] were forcibly orally administered using a sound to the “corn-oil administration group”, “lubiprostone 50 administration group”, and “lubiprostone 500 administration group”, respectively once daily for 12 days.
(§2) Renal tissue sections were prepared to perform detailed renal tissue analysis. The renal tissue of the chronic renal failure model mice to which lubiprostone was administered prepared by the method described in Example 1 was fixed in 10% neutral-buffer formalin and embedded in paraffin. The paraffin-embedded renal tissue was sliced and analyzed using 3 histological staining methods (periodic acid-Schiff stain [PAS], Masson's trichrome stain [MTS], and picrosirius red stain) (FIG. 3).
(§3) F4/80 and αSMA are known as renal failure markers. […]

[1] = Body weight of chronic renal failure model mice given lubiprostone; format: in vivo; details: adenine-diet mice; lubiprostone 50 or 500 μg/kg orally once daily for 12 days; FIG. 1
Protocol: (§4) Chronic renal failure model mice to which lubiprostone was administered were prepared according to a method consisting of the following processes to [4]. The body weight of mice was measured on a weekly basis, and blood pressure was measured by a tailcuff method.
(§5) [1] Male C57BL/6 mice (purchased from Clea Japan, Inc.) were fed on an ordinary feed (CE-2 from Clea Japan, Inc.) until 6 weeks of age.
(§6) [2] At 7 weeks of age, the mice were divided into an ordinary fed group fed on the ordinary feed (control) and an adenine-diet fed group fed on an ordinary feed containing 0.2% adenine (from Wako) (adenine-diet).
[3] […]
In the 4 groups (the ordinary fed group, the corn-oil administration group, the lubiprostone 50 administration group, and the lubiprostone 500 administration group), the body weight of mice at 7 weeks of age (immediately after adenine-diet feeding), at 9 weeks of age (at 2 weeks of age after adenine-diet feeding), at 11 weeks of age (at 4 weeks of age after adenine-diet feeding), at 13 weeks of age (immediately after lubiprostone administration), and at cervical dislocation (at 13/7 [≈1.86] weeks after lubiprostone administration) was measured; the results are shown in FIG. 1.

αSMA = assay: DAB staining of renal failure marker protein αSMA in renal tissue sections; format: in vivo, mice; details: lubiprostone 50 or 500 μg/kg vs corn oil administration group; FIG. 4 lower
Protocol: as §1, §2, §3

[2] = tested on: chronic renal failure model mice; assay: BUN and hemoglobin level in blood of chronic renal failure model mice (i-STAT); format: in vivo
Protocol: The present invention will be more specifically described below with reference to Examples. However, these Examples are not intended to limit the technical scope of the present invention. In Examples, to confirm that the administration of lubiprostone (trade name: Amitiza) could ameliorate renal function, chronic renal failure model mice were prepared by causing mice to eat adenine and analysis was performed using the chronic renal failure model mice. The chronic renal failure model mice are mice in which nephropathy occurs by the crystallization of the eaten adenine in the uriniferous tubule in the form of insoluble 2,8-dihydroxyadenine (Cozzolino, M. et al. Kidney Int. 64, 441-450 (2003) and Tamagaki, K. et al. Nephrol. Dial. Transplant 21, 651-659 (2006)). All experimental animals were operated after approval by the Ethics Committee of Tohoku University School of Medicine.
as §4, §5, §6
[3] […]
Blood was collected according to an established method from the chronic renal failure model mice to which lubiprostone was administered prepared by the method described in Example 1, and the level of BUN in the blood of the mice was measured using i-STAT (from Fuso) (FIG. 2).

[3] = tested on: Tnfa, Il6, Pai-1, and Ccl2; assay: Quantitative PCR of nephritis-related marker mRNA in whole kidney; format: in vivo, mice
Protocol: [3] […]
(§7) In addition, 8 renal failure markers other than F4/80 and αSMA (4 nephritis-related markers [Tnfa, Il6, Pai-1, and Ccl2] and 4 fibrosis-related markers [Col1a1, Col3a1, Tgfb1, and Acta2]) were also analyzed. […] The expression level of mRNA of genes of the 8 renal failure markers (the 4 nephritis-related markers and the 4 fibrosis-related markers) was detected by performing quantitative PCR using Fast start universal probe master (from Roche Co., Ltd.) under the conditions described in the following 1) to 2). […]
(§8) The number of PCR cycles at which each PCR product reaches a certain amount (threshold cycle: Ct value) was measured using Baseline software (from Applied Biosystems Co., Ltd.); the relative Ct value of the cDNA amplification product of the gene of each of the 8 renal failure markers (the 4 nephritis-related markers and the 4 fibrosis-related markers) based on the Ct value of the cDNA amplification product of the GAPDH gene was determined by a comparative Ct method (delta-delta Ct method); and the relative amount of cDNA of the gene of each of the 8 renal failure markers (the 4 nephritis-related markers and the 4 fibrosis-related markers), i.e., the relative amount of mRNA of the gene of each of the 8 renal failure markers (the 4 nephritis-related markers and the 4 fibrosis-related markers), was calculated from the relative Ct value (see the ordinate of FIG. 5).

[4] = tested on: Col1a1, Col3a1, Tgfb1, and Acta2; assay: Quantitative PCR of fibrosis-related marker mRNA in whole kidney; format: in vivo, mice
Protocol: [3] […]
as §7, §8

[5] = tested on: chronic renal failure model mice; assay: Histological analysis of renal tissue (PAS, MTS, picrosirius red) of chronic renal failure model mice; format: in vivo
Protocol: as §4, §5, §6, §1
[4] After 24 hours, the mice were subjected to cervical dislocation.
as §2

[6] = lubiprostone 500 administration group (500 μg/kg), Dunnett test, FIG. 5

SMILES: CCCCC(F)(F)C(=O)CC[C@H]1[C@H](O)CC(=O)[C@@H]1CCCCCCC(=O)O [lubiprostone, (−)-7-[(2R,4aR,5R,7aR)-2-(1,1-difluoropentyl)-2-hydroxy-6-oxooctahydrocyclopenta[b]pyran-5-yl]heptanoic acid]
- increase in the expression of renal failure marker F4/80 protein (F4/80): suppressed
- recovery of body weight after return to ordinary feed [1]: did not affect the recovery of body weight
- increase in the expression of renal failure marker αSMA protein (αSMA): suppressed
- level of hemoglobin (Hb) in the blood ([2]; chronic renal failure model mice given lubiprostone): did not change
- increase in the blood BUN level ([2]; lubiprostone 50 or 500 μg/kg orally once daily for 12 days vs corn oil administration group, FIG. 2): suppressed in a manner dependent on the dose of lubiprostone
- blood BUN level, statistical difference to the corn oil administration group ([2]; lubiprostone 500 administration group (500 μg/kg), Dunnett test p<0.05, FIG. 2): a significant difference was noted
- mRNA of 3 nephritis-related markers (excluding Il6), statistical difference to the corn oil administration group [3, 6]: a significant difference was noted
- expression level of mRNA of the 4 nephritis-related markers (Tnfa, Il6, Pai-1, Ccl2) ([3]; relative to GAPDH, lubiprostone 50 or 500 μg/kg vs corn oil administration group, FIG. 5 panel A): decreased the expression level of mRNA
- mRNA of the 4 fibrosis-related markers, statistical difference to the corn oil administration group [4, 6]: a significant difference was noted
- expression level of mRNA of the 4 fibrosis-related markers (Col1a1, Col3a1, Tgfb1, Acta2) ([4]; relative to GAPDH, lubiprostone 50 or 500 μg/kg vs corn oil administration group, FIG. 5 panel B): decreased the expression level of mRNA
- fibrosis of the kidney, collagen fiber staining by picrosirius red stain, renal tissue sections ([5]; lubiprostone 50 or 500 μg/kg vs corn oil administration group, FIG. 3 panel A bottom): the fibrosis of the kidney was suppressed
- fibrosis of the kidney, collagen fiber staining by MTS method, renal tissue sections ([5]; lubiprostone 50 or 500 μg/kg vs corn oil administration group, FIG. 3 panel A middle): the fibrosis of the kidney was suppressed
- uriniferous tubule, PAS stain of renal tissue sections ([5]; lubiprostone 50 or 500 μg/kg vs corn oil administration group, FIG. 3 panel A top): recovery of the uriniferous tubule was noted
- fibrosis of the kidney, collagen fiber staining by MTS method, whole kidney ([5]; lubiprostone 50 or 500 μg/kg vs corn oil administration group, FIG. 3 panel B top): the fibrosis of the kidney was suppressed
- decrease of the renal uriniferous tubule (tubules area, MTS method, whole kidney) ([5]; lubiprostone 50 or 500 μg/kg vs corn oil administration group, FIG. 3 panels B bottom and C): suppressed in a manner dependent on the dose of lubiprostone
- proportion of the renal uriniferous tubule in the whole kidney, statistical difference to the corn oil administration group ([5]; lubiprostone 500 administration group (500 μg/kg), Dunnett test p<0.01, FIG. 3 panel C): a significant difference was noted
